“Also recorded” adds a separate entry of the source.
Legend:
human 5-HT2B receptor [1] = biological target: T1, human 5-HT2B receptor (Homo sapiens, UniProt P41595); test: Aequorin assay, agonist activity at the 5-HT2B receptor; assay type: cell-based
T1 construct: host or cells: CHO-K1
Procedure: Percentage activation values were determined for 2-CF3 dihydroergotamine at the 5-HT2B receptor.

human 5-HT2B receptor [2] = biological target: T1, human 5-HT2B receptor; test: Aequorin assay, competitive antagonist activity at the 5-HT2B receptor; assay type: cell-based
Procedure: Percentage inhibition values were determined for 2-CF3 dihydroergotamine on the 5-HT2B receptor.

[3] = Metabolism in human liver microsomes; conditions: 1 μM, 37° C., 0-60 min; for metabolism by human liver microsomes in the presence of NADPH: 0.2 mg protein/mL
Procedure: Metabolism of dihydroergotamine (DHE) and 2-CF3 DHE was evaluated in human liver microsomes. DHE mesylate and 2-CF3 DHE mesylate (1 μM each) were incubated separately with human liver microsomes (0.2 mg protein/mL) in triplicate at 37° C. in 0.2 mL (final volume) incubation buffer (50 mM potassium phosphate buffer, pH 7.4, 3 mM MgCl2 and 1 mM EDTA, pH 7.4) with or without cofactor, NADPH-generating system. The NADPH-generating system consisted of 1 mM NADPH, pH 7.4, 5 mM glucose-6-phosphate, pH 7.4 and 1 unit/mL glucose-6-phosphate dehydrogenase. DHE was added to the incubation mixtures in water. 2-CF3-DHE was added to incubation mixtures in 50:50 (v:v) acetonitrile:water. A low level of acetonitrile in the incubation was maintained to avoid any solvent effects on enzyme activity (typically at 0.5% or lower). Reactions were initiated by the addition of the NADPH-generating system and were terminated at 0, 15, 30 and 60 minutes after initiation by the addition of 175 μL of stop reagent (acetonitrile) containing two internal standards (4′-hydroxydiclofenac-d4 and 1′-hydroxymidazolam-d4, 200 and 50 ng/mL in the final stopped incubation, respectively). The samples were then centrifuged and the supernatant fractions were analyzed by LC/MS/MS to quantify the formation of 8′-OH-DHE (metabolite) in the DHE samples and DHE and 8′-OH-DHE in the 2-CF3-DHE samples.

Salmonella typhimurium = test: Genotoxicity study, reversion of histidine-requiring Salmonella typhimurium strains; assay type: cell-based; conditions: five histidine-requiring strains, absence and presence of a rat liver metabolizing system; Dunnett's test, 1% level
Procedure: Genotoxicity studies were performed to evaluate the potential mutagenic activity of 2-CF3-DHE. Studies were performed to examine the ability of 2-CF3-DHE to revert five histidine-requiring strains of Salmonella typhimurium in the absence and presence of a rat liver metabolizing system. […] This is consistent with the conclusion that there was no evidence of any mutagenic activity observed with 2-CF3-DHE.

human coronary arteries = test: Constriction assay, human coronary arteries; conditions: CCRC 100 pM to 10 μM in half-log steps, n=6
Procedure: (§1) Human coronary arteries and saphenous veins were set up under isometric conditions on either small vessel wire myographs or organ baths, depending on vessel size, in order to examine the influence of the test article on the relative changes in tension. In order to assess tissue viability, the vessel segments were constricted with a high potassium solution (KPSS, 62.5 mM) three times. Vessels were then pre-constricted with sumatriptan (1 μM) and endothelium-dependent vasorelaxation investigated using bradykinin (10 μM). […] All vessels were fully relaxed at the end of the experiment using forskolin (10 μM).
(§2) Coronary arteries and small saphenous veins, having been cut into ring segments of approximately 2 mm length, were attached by 40 μm diameter wire running through the lumen of the vessel to stainless steel heads in 5 mL myograph baths containing PSS (physiological saline solution), aerated with 95% 02 and 5% CO2 and maintained at a temperature of 37° C. Changes in tension were recorded using a Danish Myotech isometric transducer. The vessel segments were allowed to equilibrate for at least 30 minutes after set up. Segments were processed through a standardization procedure of tension application, which reduces signal variability and allows for optimal tissue response to be obtained prior the pharmacological intervention. […]

human saphenous veins = test: Constriction assay, human saphenous veins; conditions: CCRC 100 pM to 10 μM, 6 donors
Procedure: as §1, §2

T1 sequence (P41595 whole entry): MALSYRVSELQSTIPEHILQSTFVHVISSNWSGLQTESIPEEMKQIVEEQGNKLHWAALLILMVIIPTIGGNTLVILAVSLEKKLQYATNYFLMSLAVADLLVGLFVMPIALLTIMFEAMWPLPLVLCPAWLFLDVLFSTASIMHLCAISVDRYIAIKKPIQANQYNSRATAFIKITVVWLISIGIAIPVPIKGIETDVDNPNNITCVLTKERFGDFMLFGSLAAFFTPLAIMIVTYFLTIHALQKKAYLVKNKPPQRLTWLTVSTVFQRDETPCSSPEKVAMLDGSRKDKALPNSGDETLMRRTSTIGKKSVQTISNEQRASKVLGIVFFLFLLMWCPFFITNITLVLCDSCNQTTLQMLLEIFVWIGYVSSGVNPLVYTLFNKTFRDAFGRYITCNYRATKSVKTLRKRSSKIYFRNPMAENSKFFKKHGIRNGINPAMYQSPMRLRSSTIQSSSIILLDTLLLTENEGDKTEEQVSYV

CN1C[C@H](C(=O)N[C@]2(C)O[C@@]3(O)C4CCCN4C(=O)[C@H](Cc4ccccc4)N3C2=O)CC2c3cccc4[nH]c(C(F)(F)F)c(c34)CC21 (stereo partly drawn) [2-CF3-dihydroergotamine]
agonist activity at the 5-HT2B receptor (human 5-HT2B receptor [1]; 0.01 nM to 20,000 nM, compared with Emax of α-methyl-5-HT): no agonist activity; also recorded: little agonist activity
antagonism of the 5-HT2B receptor (human 5-HT2B receptor [2]; FIG. 2): potent antagonism

CN1C[C@H](C(=O)N[C@]2(C)O[C@@]3(O)[C@@H]4CCCN4C(=O)[C@H](Cc4ccccc4)N3C2=O)CC2c3cccc4[nH]c(C(F)(F)F)c(c34)CC21 (stereo partly drawn) [2-CF3-dihydroergotamine]
metabolism by human liver microsomes in the presence of NADPH ([3]; listed as 2-CF3-DHE): extensively metabolized
intrinsic clearance, slower than that of DHE ([3]; human liver microsomes 0.2 mg protein/mL, with NADPH): about 85%
mutagenic activity, revertant numbers (Salmonella typhimurium): no statistically significant increases in the revertant numbers
change in tension, coronary arteries (human coronary arteries; listed as 2-CF3-DHE): only a very slight mean increase in tension; also recorded: slight mean increase in tension
change in tension, saphenous veins (human saphenous veins): no change in tension

Cc1cc(NC(=O)Nc2ccc3c(ccn3C)c2)sn1 [SB204741, reference compound]
IC50 (human 5-HT2B receptor [2]; CHO-K1 cells, reference agonist at its EC50, 0.005 nM to 10,000 nM, read-out: IC50, antagonism of the 5-HT2B receptor): 28.8 nM

CN1C[C@H](C(=O)N[C@]2(C)O[C@@]3(O)[C@@H]4CCCN4C(=O)[C@H](Cc4ccccc4)N3C2=O)C[C@@H]2c3cccc4[nH]cc(c34)C[C@H]21 [dihydroergotamine, reference compound]
metabolism by human liver microsomes in the presence of NADPH ([3]; listed as DHE): extensively metabolized

CNS(=O)(=O)Cc1ccc2[nH]cc(CCN(C)C)c2c1 [sumatriptan, reference compound]
EC50 (human coronary arteries; Homo sapiens, read-out: EC50, constriction curve, coronary arteries): 112 nM
EC50 (human saphenous veins; Homo sapiens, read-out: EC50, constriction curve, saphenous veins): 187 nM

CC(N)Cc1c[nH]c2ccc(O)cc12 (stereo not drawn) [α-methyl-5-HT, reference compound]
EC50 (human 5-HT2B receptor [1]; CHO-K1 cells coexpressing apoaequorin and recombinant human 5-HT2B, reference agonist, read-out: EC50, agonism of the 5-HT2B receptor): 1.01 nM

From patent publication US9365591B2, “Fluoroergoline analogs” (MAP Pharmaceuticals, Inc., priority 2011, dated 2016)
